Data published in the supplement of paper PMC10331698.
± gives the standard deviation of the averaged measurements.

Experiments:
Experiment in all cases: level (log10 ratio to DMSO vehicle control); higher = higher biomarker level / cell amount than vehicle control
[1] = compound: C=CC(=O)OCC(F)(F)C(F)(F)C(F)(F)COC(=O)C=C [1H,1H,5H,5H-Perfluoro-1,5-pentanediol diacrylate]; conditions: 6700 nM; in DMSO
Method: (§1)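 BioMAP Diversity Plus panel of 12 human primary cell co-culture systems (3C, 4H, LPS, SAg, BT, BF4T, BE3C, CASM3C, HDF3CGF, KF3CT, MyoF, Mphg). Compounds were added 1 h before stimulation and left for 24 h (MyoF 48 h; BT 72 h for soluble read-outs or 6 d for IgG). Biomarkers were read by ELISA, cytotoxicity by SRB, PBMC viability and proliferation by Alamar Blue. Each well value was divided by the mean of 8 DMSO control wells on the same plate and log10 transformed; duplicate blinded samples were tested at 4 concentrations.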

[2] = compound: NC(=O)C(F)(F)C(F)(F)C(F)(F)C(F)F; conditions: in DMSO
Method: as §1

[3] = compound: O=S(=O)(O)CCC(F)(F)C(F)(F)C(F)(F)C(F)(F)C(F)(F)C(F)(F)F [6:2 Fluorotelomer sulfonic acid]; conditions: in DMSO
Method: as §1

[4] = compound: COC(=O)C(F)(F)C(F)(F)OC(F)(C(F)(F)F)C(F)(F)OC(F)=C(F)F [Methyl perfluoro(3-(1-ethenyloxypropan-2-yloxy)propanoate)]; conditions: in DMSO
Method: as §1

[5] = compound: FC(F)(F)C(F)(F)C(F)(F)C(F)(F)C(F)(F)C(F)(F)C(F)(F)I [1-Iodopentadecafluoroheptane]; conditions: in DMSO
Method: as §1

Nonafluoropentanamide = compound: NC(=O)C(F)(F)C(F)(F)C(F)(F)C(F)(F)F [Nonafluoropentanamide]; conditions: in DMSO
Method: as §1

[6] = compound: O=C(O)C=CC(F)(C(F)(F)F)C(F)(F)F [3-(Perfluoroisopropyl)-2-propenoic acid]; conditions: in DMSO
Method: as §1

Hexafluoroamylene glycol = compound: OCC(F)(F)C(F)(F)C(F)(F)CO [Hexafluoroamylene glycol]; conditions: in DMSO
Method: as §1

Test System | level (log10) [1] | level (log10) ([2]; 6700 nM) | level (log10) ([2]; 20000 nM) | level (log10) ([2]; 60000 nM) | level (log10) ([3]; 6700 nM) | level (log10) ([3]; 20000 nM) | level (log10) ([3]; 60000 nM) | level (log10) ([4]; 6700 nM) | level (log10) ([4]; 20000 nM) | level (log10) ([5]; 6700 nM) | level (log10) ([5]; 20000 nM) | level (log10) (Nonafluoropentanamide; 6700 nM) | level (log10) (Nonafluoropentanamide; 20000 nM) | level (log10) (Nonafluoropentanamide; 60000 nM) | level (log10) ([6]; 6700 nM) | level (log10) ([6]; 20000 nM) | level (log10) ([6]; 60000 nM) | level (log10) (Hexafluoroamylene glycol; 6700 nM) | level (log10) (Hexafluoroamylene glycol; 20000 nM) | level (log10) (Hexafluoroamylene glycol; 60000 nM)
MyoF:TIMP-1 | -0.002 ± 0.0014 | -0.031 ± 0.011 | -0.024 ± 0.023 | -0.0505 ± 0.00071 | -0.032 ± 0.052 | 0.031 ± 0.042 | 0.097 ± 0.011 | 0.018 ± 0.011 | 0.0085 ± 0.039 | 0.049 ± 0.0057 | -0.0605 ± 0.0092 | -0.019 ± 0.0057 | 0.01 ± 0.035 | 0.001 ± 0.0085 | -0.0285 ± 0.00071 | -0.0085 ± 0.013 | 0.0535 ± 0.037 | -0.041 ± 0.05 | -0.0385 ± 0.06 | -0.039 ± 0.065
lMphg:CD106/VCAM-1 | -0.0615 ± 0.025 | 0 ± 0.013 | 0.006 ± 0.0014 | -0.003 ± 0.017 | -0.007 ± 0.011 | -0.0125 ± 0.0092 | -0.022 ± 0.0071 | -0.008 ± 0.025 | -0.006 ± 0.025 | -0.0025 ± 0.0064 | -0.007 ± 0.017 | -0.0255 ± 0.033 | 0.0065 ± 0.028 | -0.012 ± 0.028 | 0.001 ± 0.024 | 0.0125 ± 0.005 | 0.002 ± 0.034 | -0.0185 ± 0.012 | -0.014 ± 0.0057 | -0.0175 ± 0.0092
HDF3CGF:M-CSF | -0.482 ± 0.027 | -0.0065 ± 0.0078 | -0.008 ± 0.0014 | 0.017 ± 0.031 | -0.0255 ± 0.073 | -0.044 ± 0.068 | -0.082 ± 0.085 | 0.031 ± 0.058 | -0.074 ± 0.069 | -0.0165 ± 0.018 | -0.0165 ± 0.0064 | -0.006 ± 0.017 | 0.01 ± 0.0014 | 0.0095 ± 0.021 | -0.0005 ± 0.0021 | 0.001 ± 0.0028 | 0 ± 0.0057 | -0.014 ± 0.02 | -0.0235 ± 0.066 | -0.0495 ± 0.077
lMphg:CXCL8/IL-8 | 0.03 ± 0.0099 | -0.0235 ± 0.0078 | -0.0225 ± 0.028 | 0.0185 ± 0.047 | -0.0115 ± 0.005 | 0.022 ± 0.014 | 0.0725 ± 0.0092 | 0.135 | 0.211 ± 0.014 | -0.018 ± 0.0071 | 0.0165 ± 0.019 | 0.012 ± 0.041 | 0.005 ± 0.02 | 0.027 ± 0.014 | -0.0225 ± 0.0021 | -0.006 ± 0.0028 | 0.0415 ± 0.054 | 0.014 ± 0.021 | -0.0215 ± 0.016 | 0.0185 ± 0.06
CASM3C:CXCL8/IL-8 | -0.0125 ± 0.00071 | -0.006 | -0.006 | 0.004 ± 0.031 | 0.007 ± 0.0042 | -0.016 ± 0.011 | 0.0185 ± 0.019 | -0.004 ± 0.0085 | 0.013 ± 0.0085 | -0.0165 ± 0.016 | 0.001 ± 0.017 | -0.003 ± 0.018 | -0.0105 ± 0.012 | 0.0065 ± 0.018 | 0.008 ± 0.025 | 0.0025 ± 0.016 | 0.0225 ± 0.0021 | 0.028 ± 0.023 | -0.0055 ± 0.021 | 0.0015 ± 0.021
HDF3CGF:Collagen III | -0.177 ± 0.015 | -0.011 ± 0.0042 | -0.0155 ± 0.012 | -0.0165 ± 0.00071 | -0.0555 ± 0.015 | -0.0115 ± 0.019 | 0.03 ± 0.093 | -0.059 ± 0.072 | -0.079 ± 0.016 | -0.024 ± 0.014 | -0.023 ± 0.028 | 0.033 ± 0.0014 | 0.026 ± 0.0014 | 0.049 ± 0.0099 | -0.0125 ± 0.00071 | 0.009 ± 0.0014 | 0.033 ± 0.038 | 0.009 ± 0.051 | 0.0115 ± 0.064 | 0.0515 ± 0.026
BE3C:SRB | -0.0035 ± 0.0021 | -0.0035 ± 0.0035 | 0.0005 ± 0.005 | -0.0055 ± 0.0021 | -0.005 ± 0.0099 | -0.001 ± 0.0028 | 0.0055 ± 0.011 | -0.005 ± 0.0042 | 0.001 ± 0.0057 | 0.0095 ± 0.00071 | 0.0085 ± 0.0035 | 0.0035 ± 0.011 | 0.0065 ± 0.0035 | -0.0005 ± 0.005 | -0.0005 ± 0.005 | -0.002 ± 0.0014 | 0.013 ± 0.021 | -0.002 ± 0.0014 | -0.006 ± 0.0028 | 0.0075 ± 0.0021
lMphg:CD40 | -0.0585 ± 0.015 | -0.026 ± 0.027 | -0.011 ± 0.0071 | -0.017 ± 0.0042 | -0.017 ± 0.011 | -0.022 ± 0.028 | -0.05 ± 0.033 | -0.0295 ± 0.0064 | -0.0365 ± 0.028 | -0.0175 ± 0.052 | -0.0365 ± 0.046 | 0.0255 ± 0.03 | 0.0255 ± 0.029 | -0.0095 ± 0.012 | -0.0395 ± 0.053 | -0.01 ± 0.025 | -0.0045 ± 0.019 | -0.0175 ± 0.0021 | -0.002 ± 0.0028 | -0.0285 ± 0.039
KF3CT:TIMP-2 | -0.056 ± 0.021 | -0.006 ± 0.0057 | -0.005 ± 0.013 | 0.0015 ± 0.019 | -0.029 ± 0.0085 | -0.0035 ± 0.012 | 0.0015 ± 0.012 | 0.0105 ± 0.018 | 0.0265 ± 0.0092 | -0.009 ± 0.021 | -0.0225 ± 0.00071 | -0.0245 ± 0.0092 | -0.007 ± 0.011 | 0.011 ± 0.037 | -0.01 ± 0.013 | 0.007 ± 0.031 | 0.0205 ± 0.023 | -0.0095 ± 0.026 | -0.019 ± 0.0085 | -0.007 ± 0.014
lMphg:CD62E/E-Selectin | -0.0595 ± 0.00071 | -0.011 ± 0.038 | -0.021 ± 0.076 | -0.037 ± 0.078 | -0.0225 ± 0.018 | -0.039 ± 0.0071 | 0 ± 0.023 | 0.011 ± 0.052 | 0.018 ± 0.027 | 0.016 ± 0.014 | 0.0355 ± 0.0078 | -0.0115 ± 0.021 | -0.009 ± 0.03 | -0.011 ± 0.0028 | -0.0045 ± 0.012 | -0.002 ± 0.0099 | 0.0205 ± 0.0035 | 0.002 ± 0.0057 | -0.0215 ± 0.0092 | 0.0055 ± 0.025
HDF3CGF:CCL2/MCP-1 | -1.14 ± 0.03 | -0.017 ± 0.054 | -0.004 ± 0.04 | 0.0095 ± 0.028 | 0.0075 ± 0.019 | 0.0085 ± 0.021 | 0.008 ± 0.014 | 0.023 ± 0.0042 | 0.0305 ± 0.029 | -0.0205 ± 0.025 | -0.0335 ± 0.0035 | -0.0025 ± 0.019 | 0.0065 ± 0.012 | 0.01 ± 0.035 | -0.006 ± 0.018 | 0.006 ± 0.0085 | 0.017 ± 0.017 | -0.003 ± 0.0071 | -0.004 ± 0.0057 | 0.007 ± 0.0071
lMphg:CCL3/MIP-1alpha | -0.008 ± 0.0057 | -0.039 ± 0.0099 | -0.0295 ± 0.018 | -0.006 ± 0.0028 | 0.014 ± 0.021 | 0.072 ± 0.02 | 0.0565 ± 0.039 | 0.032 ± 0.031 | 0.0655 ± 0.026 | 0.0225 ± 0.023 | 0.0175 ± 0.049 | 0.0025 ± 0.057 | -0.0015 ± 0.06 | 0 ± 0.045 | -0.031 ± 0.018 | -0.0285 ± 0.016 | -0.0125 ± 0.016 | 0.03 ± 0.072 | -0.0125 ± 0.023 | 0.023 ± 0.034
